# Reference: patent US20100092402A1, “TREATMENT OF RESPIRATORY DISEASE” (Mucokinetica Ltd., priority 2007, published 2010)
# Where two headings read alike, the source gives them in different places.
# Biological target: T1, epithelial amiloride-sensitive sodium channel (ENaC) (Homo sapiens, UniProt P37088+P51168+P51170)
# T1 sequence (P37088 1-669): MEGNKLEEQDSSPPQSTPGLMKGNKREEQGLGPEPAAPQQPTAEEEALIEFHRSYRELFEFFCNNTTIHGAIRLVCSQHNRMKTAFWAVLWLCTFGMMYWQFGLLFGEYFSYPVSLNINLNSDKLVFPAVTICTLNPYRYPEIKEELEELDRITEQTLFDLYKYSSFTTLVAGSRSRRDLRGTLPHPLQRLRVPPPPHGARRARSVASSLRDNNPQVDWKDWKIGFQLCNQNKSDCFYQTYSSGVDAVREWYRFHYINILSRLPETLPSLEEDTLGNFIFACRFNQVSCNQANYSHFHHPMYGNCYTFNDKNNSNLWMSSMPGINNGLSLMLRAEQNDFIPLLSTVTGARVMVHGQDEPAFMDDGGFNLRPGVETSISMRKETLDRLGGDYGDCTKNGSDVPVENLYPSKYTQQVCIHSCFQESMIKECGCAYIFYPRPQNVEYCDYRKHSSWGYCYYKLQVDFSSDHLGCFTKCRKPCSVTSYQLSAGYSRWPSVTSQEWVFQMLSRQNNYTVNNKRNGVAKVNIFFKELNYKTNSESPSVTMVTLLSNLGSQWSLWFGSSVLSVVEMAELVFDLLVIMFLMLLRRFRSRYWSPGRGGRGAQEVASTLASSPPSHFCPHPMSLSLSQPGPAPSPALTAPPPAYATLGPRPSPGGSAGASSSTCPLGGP
# T1 sequence (P51168 1-640): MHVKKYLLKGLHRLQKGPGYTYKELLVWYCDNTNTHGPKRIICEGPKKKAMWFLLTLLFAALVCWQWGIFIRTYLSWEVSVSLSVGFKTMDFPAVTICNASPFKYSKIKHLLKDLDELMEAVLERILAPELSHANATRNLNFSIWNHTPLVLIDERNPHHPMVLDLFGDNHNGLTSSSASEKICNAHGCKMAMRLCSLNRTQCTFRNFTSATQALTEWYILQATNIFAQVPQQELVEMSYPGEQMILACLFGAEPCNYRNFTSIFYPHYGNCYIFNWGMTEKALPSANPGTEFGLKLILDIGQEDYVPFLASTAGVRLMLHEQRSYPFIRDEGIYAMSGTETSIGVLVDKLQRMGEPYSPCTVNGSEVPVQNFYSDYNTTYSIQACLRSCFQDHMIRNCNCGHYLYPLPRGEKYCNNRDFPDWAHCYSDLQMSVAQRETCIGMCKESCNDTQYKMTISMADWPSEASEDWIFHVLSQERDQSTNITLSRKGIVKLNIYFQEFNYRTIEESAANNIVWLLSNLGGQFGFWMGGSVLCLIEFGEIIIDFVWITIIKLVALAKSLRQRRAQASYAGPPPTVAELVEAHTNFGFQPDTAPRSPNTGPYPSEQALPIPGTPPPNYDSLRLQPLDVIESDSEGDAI
# T1 sequence (P51170 1-649): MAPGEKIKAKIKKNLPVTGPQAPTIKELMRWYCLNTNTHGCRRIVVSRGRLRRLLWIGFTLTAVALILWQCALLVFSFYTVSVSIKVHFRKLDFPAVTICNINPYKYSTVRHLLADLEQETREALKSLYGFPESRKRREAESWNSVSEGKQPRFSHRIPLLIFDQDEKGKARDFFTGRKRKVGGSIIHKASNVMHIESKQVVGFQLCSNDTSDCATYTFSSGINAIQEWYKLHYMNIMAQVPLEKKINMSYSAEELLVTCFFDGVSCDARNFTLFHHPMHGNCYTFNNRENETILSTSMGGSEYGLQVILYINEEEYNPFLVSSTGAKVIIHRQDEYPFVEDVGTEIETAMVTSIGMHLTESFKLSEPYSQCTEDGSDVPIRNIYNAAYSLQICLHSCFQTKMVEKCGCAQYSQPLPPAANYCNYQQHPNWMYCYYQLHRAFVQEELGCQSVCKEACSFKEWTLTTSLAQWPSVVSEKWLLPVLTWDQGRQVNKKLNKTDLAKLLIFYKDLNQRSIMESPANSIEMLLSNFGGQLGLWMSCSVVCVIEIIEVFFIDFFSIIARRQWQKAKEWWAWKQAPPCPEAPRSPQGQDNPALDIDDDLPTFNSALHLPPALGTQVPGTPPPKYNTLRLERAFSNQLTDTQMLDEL
# Format: cell-based
# Details: for average baseline Isc slope in initial recording period: control slope +0.04
# Protocol: Human bronchial epithelial (HBE) cells were purchased from Cambrex Bioscience Ltd, UK., and were stored frozen in liquid nitrogen until required for use.
# HBE cells were amplified by growing in secondary culture according to the suppliers' instructions. Cells were seeded at densities of between 3,000 to 4,000/cm^2 in plastic T-25 culture flasks in bronchial epithelial cell growth medium (BEGM) prepared from bronchial epithelial basal medium (BEBM, Cambrex, UK) supplemented with bovine pituitary extract, hydrocortisone, human epidermal growth factor, epinephrine, transferrin, insulin, retinoic acid, triiodothyronine, gentamicin, and amphotericin B. Cultures were maintained at 37° C. in 5% CO2 in a humidified incubator. Medium was changed every 1 to 3 days until cells were approximately 90% confluent. Cells were then passaged with trypsin EDTA according to the suppliers' instructions, and either used for further cell cultures, or cryopreserved in liquid nitrogen in BEGM containing 10% foetal bovine serum and 10% DMSO.
# HBE cells were prepared for electrophysiology studies by growing as tertiary cultures on Snapwell (Corning) 0.4μ clear polyester membrane inserts 1.2 cm^2 coated with collagen IV (Sigma). Cells were seeded at approximately 10^5/cm^2 in 0.5 ml 1:1 DMEM (Cambrex, UK) BEGM containing bovine pituitary extract (50 μg/ml), hydrocortisone (0.5 μg/ml), human epidermal growth factor (0.5 ng/ml), epinephrine (0.5 μg/ml), transferrin (10 μg/ml), insulin (5 μg/ml), retinoic acid (50 nM), and gentamicin (50 μg/ml) (Danahay medium; Danahay et al. 2002). Snapwell inserts were mounted in 6-well plates with 3 ml Danahay medium in the wells, and grown at 37° C. in 5% CO2 in a humidified incubator. Medium was changed every 1 to 3 days. An apical air-liquid interface (ALI) was established as the cells achieved confluence (3 to 6 days) by removal of medium from the centre of the insert. Confluent differentiated bronchial epithelial cells were used for electrophysiology studies at between 15 and 29 days after establishing ALI.
# Differentiated HBE cells grown to confluence at an air-liquid interface for 15 to 29 days were used to study substances for ability to achieve long duration down regulation of the epithelial amiloride-sensitive sodium channel (ENaC).
# Step 1: Treatment with substance. For each group of cells treated with a substance, 30 μl of 100 times final concentration of substance was added to the 3 ml basolateral culture medium, mixed and 150 μl of the resultant basolateral fluid was transferred to the apical surface for 5 min. For non-treatment control groups of basolateral fluid with no added substance was transferred to the apical surface. After 5 min. equilibration the excess apical fluid was then transferred back to the basolateral side of the culture well.
# Step 2: Variable period of incubation with the substance. Dependent on the individual experiment the cells were returned to the 37° C. incubator for periods of 0 min. to 120 min.
# Step 3: Period of substance washout with fresh culture medium. For experiments to study the duration of a substance response the HBE cells on Snapwell inserts were washed with fresh culture medium (no added substance) at 37° C. and placed in fresh 6-well plates containing 3 ml fresh culture medium (no added substance) on the basolateral side. […] Step 3 was omitted in studies where the duration of the substance response was not investigated.
# Step 4: Wash with Krebs-Ringer buffer and assembly in Ussing chambers. The Snapwell insert cultures of HBE cells were removed from the 6-well plates and washed with excess Krebs-Ringer buffer (120 mM-NaCl, 25 mM-NaHCO3, 3.3 mM-KH2PO4, 0.8 mM-K2HPO4, 1.2 mM-CaCl2, 1.2 mM-MgCl2, 10 mM-glucose) pH7.4 at 37° C. The inserts were then mounted in Ussing chambers (Snapwell diffusion chambers, Costar UK Ltd.). Each side of the chamber was filled with 5 ml Krebs-Ringer buffer and gassed continuously with 95% O2/5% CO2 at 37° C. […]
# [1] = down regulation of ENaC activity
smiles,measurement,setting,value
N=C(N)c1ccc2cc(OC(=O)c3ccc(N=C(N)N)cc3)ccc2c1 [6-amidino-2-napthyl 4-guanidinobenzoate],average baseline Isc slope in initial recording period,"1 μM 60 min, 3 h 00 min washout, FIG. 7D",+0.93 μAmp/min
same,average baseline Isc slope in initial recording period,"1 μM 60 min, 4 h 30 min washout, FIG. 7E",+0.60 μAmp/min
same,amiloride ΔIsc compared to control,"1 μM 60 min, then 4 h 30 min culture medium washout",not significantly different
same,slope of rising baseline short circuit current relative to untreated controls,"3 h 00 min in fresh culture, first 15 minutes of recording, FIGS. 7D and 7A",over 20 times
same,time to half maximal inhibition (onset),[1],≤ 5 min
same,time to maximum down regulation (onset),[1],≤ 30 min
